Measured values from ChEMBL document CHEMBL1201862, “PubChem BioAssay data set” (2004).
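Assay format: 96-well plates, 48-hour exposure. The concentration for 50% growth inhibition is given as GI50.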 Active and inactive are the calls of the source. No stated cut-off is given here; in the data, active = GI50 up to about 1.1 µM and inactive = higher.

Experiments:
Assay in all cases: NCI-60 cell line screen, 48 h
HCC 2998 = tested on: HCC 2998
HCT-116 = tested on: HCT-116
PC-3 = tested on: PC-3
HL-60 = tested on: HL-60
NCI-H460 = tested on: NCI-H460
Hs-578T = tested on: Hs-578T
SK-MEL-28 = tested on: SK-MEL-28
MDA-MB-435 = tested on: MDA-MB-435
EKVX = tested on: EKVX
NCI/ADR-RES = tested on: NCI/ADR-RES
SK-OV-3 = tested on: SK-OV-3
NCI-H522 = tested on: NCI-H522
M14 = tested on: M14
MCF7 = tested on: MCF7
HCT-15 = tested on: HCT-15
LOX IMVI = tested on: LOX IMVI
SN12C = tested on: SN12C
SW-620 = tested on: SW-620
RPMI-8226 = tested on: RPMI-8226
K562 = tested on: K562

Structure (SMILES)	GI50 (HCC 2998)	GI50 (HCT-116)	GI50 (PC-3)	GI50 (HL-60)	GI50 (NCI-H460)	GI50 (Hs-578T)	GI50 (SK-MEL-28)	GI50 (MDA-MB-435)	GI50 (EKVX)	GI50 (NCI/ADR-RES)	GI50 (SK-OV-3)	GI50 (NCI-H522)	GI50 (M14)	GI50 (MCF7)	GI50 (HCT-15)	GI50 (LOX IMVI)	GI50 (SN12C)	GI50 (SW-620)	GI50 (RPMI-8226)	GI50 (K562)
OC(CCN1CCN(CCOC(c2ccccc2)c2ccccc2)CC1)c1ccccc1 (centres undefined)	14.8 µM (inactive)	17.5 µM (inactive)	21.5 µM (inactive)	16.7 µM (inactive)	18.6 µM (inactive)	21.1 µM (inactive)	17.9 µM (inactive)	18.5 µM (inactive)	19.7 µM (inactive)	21.5 µM (inactive)	35.8 µM (inactive)	17.4 µM (inactive)	18.1 µM (inactive)	22.4 µM (inactive)	18.5 µM	19 µM (inactive)	29.1 µM (inactive)	31.1 µM (inactive)	–	–
CN(C)/C=C/c1nnc([N+](=O)[O-])s1	17.3 µM (inactive)	5.94 µM (inactive)	4.95 µM (inactive)	–	11.6 µM (inactive)	14.5 µM (inactive)	–	3.69 µM (inactive)	–	16.5 µM (inactive)	20.7 µM (inactive)	1.66 µM (inactive)	14.6 µM (inactive)	2.17 µM (inactive)	12 µM	2.69 µM (inactive)	18.8 µM (inactive)	16.8 µM (inactive)	< 0.01 µM (active)	–
C=CCCCC1SC2=C(CC)CCCN2C1=O (centres undefined)	–	53.8 µM (inactive)	45.2 µM (inactive)	34.4 µM (inactive)	–	47.9 µM (inactive)	76.6 µM (inactive)	84.3 µM (inactive)	78.7 µM (inactive)	31.6 µM (inactive)	> 100 µM (inactive)	35.1 µM (inactive)	> 100 µM (inactive)	42.7 µM (inactive)	40.2 µM	89.7 µM (inactive)	> 100 µM (inactive)	77.4 µM (inactive)	38.2 µM (inactive)	> 100 µM (inactive)
COC1CCC(=O)N1CN(C(C)=O)c1ccc(C)cc1 (centres undefined)	> 100 µM (inactive)	> 100 µM (inactive)	> 100 µM (inactive)	–	> 100 µM (inactive)	> 100 µM (inactive)	> 100 µM (inactive)	> 100 µM (inactive)	–	> 100 µM (inactive)	> 100 µM (inactive)	–	> 100 µM (inactive)	> 100 µM (inactive)	> 100 µM	> 100 µM (inactive)	> 100 µM (inactive)	> 100 µM (inactive)	> 100 µM (inactive)	> 100 µM (inactive)
